Measured values reported in patent publication US12678464B2, “Methods for stem cell transplantation” (The UAB Research Foundation, priority 2015, dated 2026).
Values after ≈ are worked out from the molar mass of the structure shown. Like-named read-outs stand apart in the source and are kept apart here.

Legend:
haploidentical HCT [1] = details: CTN 0603; cited from earlier work
clinical = details: human, in vivo, intravenous, 50 mg/kg
[2] = LexiComp monograph; cited from earlier work
haploidentical HCT [3] = details: at 1 year; cited from earlier work
[4] = constituted, cited from earlier work
[5] = 1-octanol/water (pH 7.4) buffer solution; cited from earlier work
[6] = cited from earlier work
[7] = cited from earlier work; remark: listed apart in the source

| SMILES | relapse rate (haploidentical HCT [1]) [%] | half-life (clinical) [h] | elimination half-life [2] [h] | relapse rate (haploidentical HCT [3]) [%] | physically and chemically stable ([4]; refrigerated) | physically and chemically stable ([4]; room temperature) [h] | apparent partition coefficient [5] | solubility in acetone ([6]; acetone, in words) | solubility in ethanol ([6]; in words) | solubility in methanol ([6]; in words) | solubility in an acidic medium ([6]; pH 3.6) [µg/mL] | solubility in water ([6]; pH 7.4) [µg/mL] | solubility in water ([6]; water, in words) | pKa ([7]; morpholino group) | pKa ([7]; phenolic group) | solubility in chloroform ([6]; chloroform, in words) |
| --- | --- | --- | --- | --- | --- | --- | --- | --- | --- | --- | --- | --- | --- | --- | --- | --- |
| O=P1(N(CCCl)CCCl)NCCCO1 (stereo not shown) [Cyclophosphamide, 2-[bis(2-cholorethyl)amino]tetrahydro-2H-1,3,2-oxazaphosphorine 2-oxide monohydrate] | 45 | 60 | 3 to 12 | 51 | six | 24 |  |  |  |  |  |  |  |  |  |  |
| COc1c(C)c2c(c(O)c1C/C=C(\C)CCC(=O)OCCN1CCOCC1)C(=O)OC2 [Mycophenolate mofetil, 2-morpholinoethyl (E)-6-(1,3-dihydro-4-hydroxy-6-methoxy-7-methyl-3-oxo-5-isobenzofuranyl)-4-methyl-4-hexenoate] |  |  |  |  |  |  | 238 | freely soluble | sparingly soluble | soluble | 4270 (≈ 9.85 mM) | 43 (≈ 0.0992 mM) | slightly soluble | 5.6 | 8.5 |  |
| C=CC[C@@H]1/C=C(\C)C[C@H](C)C[C@H](OC)[C@H]2O[C@@](O)(C(=O)C(=O)N3CCCC[C@H]3C(=O)O[C@H](/C(C)=C/[C@@H]3CC[C@@H](O)[C@H](OC)C3)[C@H](C)[C@@H](O)CC1=O)[C@H](C)C[C@@H]2OC [Tacrolimus] |  |  |  |  |  |  |  |  | freely soluble | very soluble |  |  | practically insoluble |  |  | very soluble |
